Consider five molecules from publication PMC3629081, “Tetrahydropyrazolo[1,5-a]Pyrimidine-3-Carboxamide and N-Benzyl-6′,7′-Dihydrospiro[Piperidine-4,4′-Thieno[3,2-c]Pyran] Analogues with Bactericidal Efficacy against Mycobacterium tuberculosis Targeting MmpL3” (PLoS ONE, 2013).

For one assay, the system named is M. tuberculosis. It counts as cell-based, Mycobacterium tuberculosis. Conditions: 10x MIC.
Assay [1] concerns M. tuberculosis H37Rv mutants with MmpL3 mutations. It counts as cell-based, Mycobacterium tuberculosis.

Values joined by “and” are separate entries in the source; they are usually repeats but may differ in a detail not shown here. Equal entries are not always repeated.

For `CCc1ccc([C@H]2C[C@@H](C(F)(F)F)n3ncc(C(=O)NCc4ccc(OC)cc4)c3N2)cc1` [Compound 1, (5R,7S)-5-(4-ethylphenyl)-N-(4-methoxybenzyl)-7-(trifluoromethyl)-4,5,6,7-tetrahydropyrazolo[1,5-a]pyrimidine-3-carboxamide], in the assay with M. tuberculosis, the “frequency of spontaneous resistant mutant generation” value was 6.4×10^−8 mutant/cfus.

`c1cc2c(s1)CCOC21CCN(Cc2ccc3c(c2)OCCO3)CC1` [Compound 2]: the “frequency of spontaneous resistant mutant generation” value with M. tuberculosis is recorded as 3.6×10^−8 mutant/cfus.

Regarding `CC[C@@H](CO)NCCN[C@@H](CC)CO` [Ethambutol], in assay [1], the “Ratio MICmut/MICwt” value was 0.5 and 1.0 and 0.8; the “susceptibility of all isolated mutants to classic antitubercular drugs” value (“susceptibility of all isolated mutants” for short) is reported as “susceptible”.

For `CC(=O)NC[C@H]1CN(c2ccc(N3CCOCC3)c(F)c2)C(=O)O1` [Linezolid], in assay [1], the “Ratio MICmut/MICwt” value is 0.5 and 1.0; the “susceptibility of all isolated mutants” value is “susceptible”.

`COc1c(N2C[C@@H]3CCCN[C@@H]3C2)c(F)cc2c(=O)c(C(=O)O)cn(C3CC3)c12` [Moxifloxacin]: in assay [1], the “Ratio MICmut/MICwt” value is 1.0 and 0.5; the “susceptibility of all isolated mutants” value is “susceptible”.
